Experimental data reported in patent US20220265591A1, “USE OF AN OSMOLYTE IN MANUFACTURE OF A MEDICAMENT FOR TREATMENT OF OCULAR DISORDERS” (SINGAPORE HEALTH SERVICES PTELTD, priority 2019, published 2022).
“Also recorded” adds a separate entry of the source. Where two headings read alike, the source gives them in different places.

Key:
Type in all cases: biochemical
[1] = target: T1, TGFBIp611-633 G623R peptide (Homo sapiens, UniProt Q15582, G623R); test: Circular Dichroism assay (θ[218]), inhibition of amyloid fibrillation
T1 construct: The 23-amino acid long peptide (TGFBIp 611-633 c.623 G>R) from the 4th FAS1 domain; purchased Synpeptide Co Ltd, Shanghai, China; host or cells: synthetic peptide
T1 sequence (Q15582 611-633 G623R limits assumed): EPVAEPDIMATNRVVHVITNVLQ
Protocol: The peptide samples were collected 0.1 cm path length quartz cuvettes and examined in a Chirascan™-plus Spectropolarimeter (Applied Photophysics Limited, UK). Spectra were recorded from 260 nm to 190 nm in 0.1 nm steps at a scan rate of 50 nm/min. The final spectrum was the average of three scans as per the manufacturer's recommendation. The Mean Residual Weight (MRW) ellipticity ([θ]mrw values) at wavelength λ was calculated using the following equation (i): […]
whereby θλ is the observed ellipticity at a particular wavelength (degrees), I is the path length (cm), and c is the concentration (g/ml). Secondary structures of the protein were analyzed using CDNN software.
The θ[218] values that determine the β-sheet secondary structure were used to calculate the percentage inhibition in cross β-sheet in the untreated and osmolyte-treated peptide samples at various time points. Percentage inhibition for each osmolyte treatment per time point was calculated by normalizing the [θ]218 values of osmolyte treatment with the [θ]218 values of the untreated samples and expressed as a percentage.
Circular Dichroism (CD) spectroscopy was performed to study the changes in the secondary structure of the peptides. The TGFBIp^611-633 G623R peptides were treated with 200 mM and 320 mM of taurine in PBS buffer at pH 7.0 for 24 h, 48 h and 72 h, respectively. While the TGFBIp^611-633 N622K peptides were treated with 200 mM and 320 mM of taurine in PBS buffer at pH 7.0 for 72 h, 96 h, 120 h, 144 h, 192 h, 216 h, and 240 h, respectively. The treatment solutions were studied by far UV-CD assay.

[2] = target: T2, preformed amyloid fibrils from TGFBIp611-633 G623R peptide (Homo sapiens, UniProt Q15582, G623R); test: ThT fluorescence assay, dissolution of preformed amyloid fibrils; conditions: for inhibition at 200000 µM: preformed fibrils, read-out: % Inhibition (mean ± SD) n = 3, dissolution of amyloid fibrils, ThT fluorescence; for % Dissolution at final time point, ThT: TGFBIp-G623R preformed fibrils
T2 construct: The 23-amino acid long peptide (TGFBIp 611-633 c.623 G>R) from the 4th FAS1 domain; purchased Synpeptide Co Ltd, Shanghai, China; host or cells: synthetic peptide
Protocol: The TGFBIp^611-633 G623R peptides were incubated in PBS for 24 hours, allowed to form uniform amyloid fibrils. The TGFBIp^611-633 G623R peptide solution was then subjected to Circular Dichroism spectroscopy to confirm the formation of amyloid fibrils.
The preformed amyloid fibril solution incubated with PBS was used as a control.
The peptide samples collected at the various time points above were treated with 30 μM ThT in PBS buffer at pH 5.5 in a 96-well microplate for ThT fluorescence assay. The microplate was excited at […] and the resulting emission fluorescence at 485 nm was measured using a microplate reader (Tecan Infinite M200 Pro, CA, USA).
The preformed amyloid fibrils were treated with taurine at a concentration of 200 mM and 320 mM for up to 72 hours, respectively. The preformed amyloid fibrils incubated with PBS were used as controls.
The samples were collected at 24 h, 48 h and 72 h after treatment for the TGFBIp^611-633 G623R peptides, and at 24 h, 48 h, 96 h and 144 h after treatment for the TGFBIp^611-633 N622K peptides. The samples were then treated with 30 μM ThT in PBS buffer at pH 5.5 in a 96-well microplate for ThT fluorescence assay. The microplate was excited at 445 nm and the resulting emission fluorescence at 485 nm was measured using a microplate reader.

[3] = target: T1, TGFBIp611-633 G623R peptide; test: ThT fluorescence assay, inhibition of amyloid fibrillation; conditions: for inhibition at 200000 µM: 200 mM
Protocol: The 23-amino acid long peptide (TGFBIp 611-633 c.623 G>R) from the 4th FAS1 domain of TGFBIp with the substitution, G623→R ([…]) that rapidly formed amyloid fibrils was used in this study. The peptide was dissolved (0.6 mg/ml) in PBS and allowed to form amyloid fibrils in 50 ml Falcon tubes in a shaking incubator at 37° C. and 180 rpm with and without the addition of osmolytes. […] The TGFBIp^611-633 G623R peptide incubated with PBS was used as a control.
The peptide samples collected at various time points above were treated with 30 μM Thioflavin T (ThT) (Sigma-Aldrich Inc., MO, USA) in PBS buffer at pH 5.5 in a 96-well microplate (Greiner Bio-One, Frickenhausen, Germany) for ThT fluorescence assay. The microplate was excited at 445 nm and the resulting emission fluorescence at 485 nm was measured using a microplate reader (Tecan Infinite M200 Pro, CA, USA).
Percentage inhibition for each osmolyte treatment was calculated by subtracting the baseline fluorescent intensity without the peptides and compounds from the observed fluorescent intensity of each treatment well. The fluorescent intensities per osmolyte treatment were normalized against the untreated fluorescent intensity per time point and expressed as a percentage.
The TGFBIp^611-633 G623R peptides were treated with 200 mM and 320 mM of taurine for up to 72 hours, respectively, the results of which are illustrated in FIG. 11. The TGFBIp^611-633 N622K peptides were treated with 200 mM and 320 mM of taurine for up to 240 hours, respectively, the results of which are illustrated in FIG. 12. The peptides incubated with PBS were used as controls.
The peptide samples were collected at 24 h, 48 h and 72 h after treatment for TGFBIp^611-633 G623R peptides and at 120 h, 144 h and […] after treatment for the TGFBIp^611-633 N622K peptides. The samples were then treated with 30 μM ThT in PBS buffer at pH 5.5 in a 96-well microplate for ThT fluorescence assay. The microplate was excited at 445 nm and the resulting emission fluorescence at 485 nm was measured using a microplate reader.

[4] = 200 mM, 24 h, read-out: % Inhibition (mean ± SD) n = 3, θ[218] circular dichroism
[5] = 200 mM, 48 h, read-out: % Inhibition (mean ± SD) n = 3, θ[218] circular dichroism
[6] = 200 mM, 72 h, read-out: % Inhibition (mean ± SD) n = 3, θ[218] circular dichroism
[7] = TGFBIp-G623R, 320 mM, final time point
[8] = 24 h, read-out: % Inhibition (mean ± SD) n = 3, ThT fluorescence
[9] = 48 h, read-out: % Inhibition (mean ± SD) n = 3, ThT fluorescence
[10] = 72 h, read-out: % Inhibition (mean ± SD) n = 3, ThT fluorescence

Compound	inhibition at 200000 µM [1, 4] [%]	inhibition at 200000 µM [1, 5] [%]	inhibition at 200000 µM [1, 6] [%]	inhibition at 200000 µM ([2]; 200 mM, 24 h) [%]	inhibition at 200000 µM ([2]; 200 mM, 48 h) [%]	inhibition at 200000 µM ([2]; 200 mM, 72 h) [%]	inhibition at 200000 µM [3, 8] [%]	inhibition at 200000 µM [3, 9] [%]	inhibition at 200000 µM [3, 10] [%]	inhibitory effect on fibrillation compared among the four osmolytes, CD ([1]; 200 mM)	also measured
NCCS(=O)(=O)O [Taurine, taurine]	~25	~54	~56	23 ± 1	52 ± 5	61	20 ± 6	34 ± 5	48		% Inhibition at final time point, CD ([1]; TGFBIp-G623R, 200 mM, final time point): 42%; inhibition at 200000 µM ([1]; TGFBIp-G623R, 200 mM, final time point, read-out: % Inhibition at final time point, CD): 41%; % Inhibition at final time point, CD [1, 7]: 63%; inhibition at 320000 µM ([1]; TGFBIp-G623R, 320 mM, final time point, read-out: % Inhibition at final time point, CD): 61%; % Dissolution at final time point, ThT ([2]; 200 mM): 63%; % Dissolution at final time point, ThT ([2]; 200 mM, listed as taurine): 64%; % Dissolution at final time point, ThT ([2]; 320 mM): 83%; % Dissolution at final time point, ThT ([2]; 320 mM, listed as taurine): 83%; inhibition at 200000 µM ([3]; TGFBIp-G623R, final time point, read-out: % Inhibition at final time point, ThT): 41%; % Inhibition at final time point, ThT [3, 7]: 60%; inhibition at 320000 µM [3, 7]: 61%
OC[C@H]1O[C@H](OC[C@H]2O[C@H](O[C@]3(CO)O[C@H](CO)[C@@H](O)[C@@H]3O)[C@H](O)[C@@H](O)[C@@H]2O)[C@H](O)[C@@H](O)[C@H]1O [Raffinose, raffinose]	19	23	57	14 ± 4	48 ± 6	64	21 ± 6	32 ± 2	65	maximum inhibition; also recorded: maximum inhibitory effect	
C[N+](C)(C)CC(=O)O [Betaine, betaine]	8	19	34	4 ± 3	34 ± 11	37 ± 17	16 ± 3	26 ± 3	44		
CNCC(=O)O [Sarcosine, sarcosine]	~17	~43	~57	24 ± 3	47 ± 4	53 ± 3	20 ± 3	32 ± 2	56	maximum inhibition	
